# What was measured:
# Format in all cases: cell-based
# [1] = test system: Salmonella typhimurium TA1535; assay: Ames test (reverse mutation test), TA1535
# Protocol: (§1) The solvent used herein was dimethyl sulfoxide (DMSO, 100 µL/plate).
# (§2) The mixtures were preincubated at 37° C. for 20 minutes while shaking. […] Two plates per treatment were used.
# [2] = test system: Salmonella typhimurium TA98; assay: Ames test (reverse mutation test), TA98
# Protocol: as §1, §2
# [3] = test system: Salmonella typhimurium TA1537; assay: Ames test (reverse mutation test), TA1537
# Protocol: as §1, §2
# [4] = test system: Salmonella typhimurium TA100; assay: Ames test (reverse mutation test), TA100
# Protocol: as §1, §2
# Escherichia coli WP2uvrA = assay: Ames test (reverse mutation test), WP2uvrA
# Protocol: as §1, §2
structure (smiles),measurement,setting,value
Nc1cc(-c2cccc(OCC(F)(F)F)c2)n(-c2ccc(F)cc2)n1 [Metabolite E],Number of revertant colonies TA1535,"[1]; S9 Mix +, dose 1667 µg/plate",0
same,Number of revertant colonies TA1535,"[1]; S9 Mix -, dose 556 µg/plate",0
same,Number of revertant colonies TA1535,"[1]; S9 Mix -, dose 1667 µg/plate",0
same,potential to induce reverse mutations,[1]; TA1535 with S9 mix,showed potential to induce reverse mutations
same,Number of revertant colonies TA98,"[2]; S9 Mix +, dose 2.3 µg/plate",589
same,Number of revertant colonies TA98,"[2]; S9 Mix +, dose 6.9 µg/plate",1310
same,Number of revertant colonies TA98,"[2]; S9 Mix +, dose 21 µg/plate",1001
same,Number of revertant colonies TA98,"[2]; S9 Mix +, dose 62 µg/plate",490
same,Number of revertant colonies TA98,"[2]; S9 Mix +, dose 185 µg/plate",268
same,Number of revertant colonies TA98,"[2]; S9 Mix +, dose 556 µg/plate",77
same,Number of revertant colonies TA98,"[2]; S9 Mix +, dose 1667 µg/plate",15
same,Number of revertant colonies TA98,"[2]; S9 Mix +, dose 5000 µg/plate",12
same,Number of revertant colonies TA98,"[2]; S9 Mix -, dose 2.3 µg/plate",26
same,Number of revertant colonies TA98,"[2]; S9 Mix -, dose 6.9 µg/plate",27
same,Number of revertant colonies TA98,"[2]; S9 Mix -, dose 21 µg/plate",28
same,Number of revertant colonies TA98,"[2]; S9 Mix -, dose 62 µg/plate",32
same,Number of revertant colonies TA98,"[2]; S9 Mix -, dose 185 µg/plate",17
same,Number of revertant colonies TA98,"[2]; S9 Mix -, dose 556 µg/plate",12
same,Number of revertant colonies TA98,"[2]; S9 Mix -, dose 1667 µg/plate",6
same,Number of revertant colonies TA98,"[2]; S9 Mix -, dose 5000 µg/plate",2
same,potential to induce reverse mutations,[2]; TA98 with S9 mix,showed potential to induce reverse mutations
same,Number of revertant colonies TA1537,"[3]; S9 Mix +, dose 2.3 µg/plate",65
same,Number of revertant colonies TA1537,"[3]; S9 Mix +, dose 6.9 µg/plate",227
same,Number of revertant colonies TA1537,"[3]; S9 Mix +, dose 21 µg/plate",180
same,Number of revertant colonies TA1537,"[3]; S9 Mix +, dose 62 µg/plate",102
same,Number of revertant colonies TA1537,"[3]; S9 Mix +, dose 185 µg/plate",85
same,Number of revertant colonies TA1537,"[3]; S9 Mix +, dose 556 µg/plate",0
same,Number of revertant colonies TA1537,"[3]; S9 Mix +, dose 1667 µg/plate",0
same,Number of revertant colonies TA1537,"[3]; S9 Mix +, dose 5000 µg/plate",0
same,Number of revertant colonies TA1537,"[3]; S9 Mix -, dose 2.3 µg/plate",17
same,Number of revertant colonies TA1537,"[3]; S9 Mix -, dose 6.9 µg/plate",20
same,Number of revertant colonies TA1537,"[3]; S9 Mix -, dose 21 µg/plate",16
same,Number of revertant colonies TA1537,"[3]; S9 Mix -, dose 62 µg/plate",11
same,Number of revertant colonies TA1537,"[3]; S9 Mix -, dose 185 µg/plate",3
same,Number of revertant colonies TA1537,"[3]; S9 Mix -, dose 556 µg/plate",0
same,Number of revertant colonies TA1537,"[3]; S9 Mix -, dose 1667 µg/plate",0
same,Number of revertant colonies TA1537,"[3]; S9 Mix -, dose 5000 µg/plate",0
same,potential to induce reverse mutations,[3]; TA1537 with S9 mix,showed potential to induce reverse mutations
same,potential to induce reverse mutations,[3]; TA1537 without S9 mix,showed potential to induce reverse mutations
same,Number of revertant colonies TA100,"[4]; S9 Mix +, dose 2.3 µg/plate",1338
same,Number of revertant colonies TA100,"[4]; S9 Mix +, dose 6.9 µg/plate",2032
same,Number of revertant colonies TA100,"[4]; S9 Mix +, dose 21 µg/plate",2016
same,Number of revertant colonies TA100,"[4]; S9 Mix +, dose 62 µg/plate",2320
same,Number of revertant colonies TA100,"[4]; S9 Mix +, dose 185 µg/plate",1799
same,Number of revertant colonies TA100,"[4]; S9 Mix +, dose 556 µg/plate",1082
same,Number of revertant colonies TA100,"[4]; S9 Mix +, dose 1667 µg/plate",182
same,Number of revertant colonies TA100,"[4]; S9 Mix +, dose 5000 µg/plate",157
same,Number of revertant colonies TA100,"[4]; S9 Mix -, dose 2.3 µg/plate",110
same,Number of revertant colonies TA100,"[4]; S9 Mix -, dose 6.9 µg/plate",96
same,Number of revertant colonies TA100,"[4]; S9 Mix -, dose 21 µg/plate",96
same,Number of revertant colonies TA100,"[4]; S9 Mix -, dose 62 µg/plate",101
same,Number of revertant colonies TA100,"[4]; S9 Mix -, dose 185 µg/plate",75
same,Number of revertant colonies TA100,"[4]; S9 Mix -, dose 556 µg/plate",38
same,Number of revertant colonies TA100,"[4]; S9 Mix -, dose 1667 µg/plate",27
same,Number of revertant colonies TA100,"[4]; S9 Mix -, dose 5000 µg/plate",0
same,potential to induce reverse mutations,[4]; TA100 with S9 mix,showed potential to induce reverse mutations
same,Number of revertant colonies WP2uvrA,"Escherichia coli WP2uvrA; S9 Mix +, dose 2.3 µg/plate",26
same,Number of revertant colonies WP2uvrA,"Escherichia coli WP2uvrA; S9 Mix +, dose 6.9 µg/plate",32
same,Number of revertant colonies WP2uvrA,"Escherichia coli WP2uvrA; S9 Mix +, dose 21 µg/plate",24
same,Number of revertant colonies WP2uvrA,"Escherichia coli WP2uvrA; S9 Mix +, dose 62 µg/plate",30
same,Number of revertant colonies WP2uvrA,"Escherichia coli WP2uvrA; S9 Mix +, dose 185 µg/plate",18
same,Number of revertant colonies WP2uvrA,"Escherichia coli WP2uvrA; S9 Mix +, dose 556 µg/plate",19
same,Number of revertant colonies WP2uvrA,"Escherichia coli WP2uvrA; S9 Mix +, dose 1667 µg/plate",13
same,Number of revertant colonies WP2uvrA,"Escherichia coli WP2uvrA; S9 Mix +, dose 5000 µg/plate",12
same,Number of revertant colonies WP2uvrA,"Escherichia coli WP2uvrA; S9 Mix -, dose 2.3 µg/plate",20
same,Number of revertant colonies WP2uvrA,"Escherichia coli WP2uvrA; S9 Mix -, dose 6.9 µg/plate",26
same,Number of revertant colonies WP2uvrA,"Escherichia coli WP2uvrA; S9 Mix -, dose 21 µg/plate",24
same,Number of revertant colonies WP2uvrA,"Escherichia coli WP2uvrA; S9 Mix -, dose 62 µg/plate",27
same,Number of revertant colonies WP2uvrA,"Escherichia coli WP2uvrA; S9 Mix -, dose 185 µg/plate",22
same,Number of revertant colonies WP2uvrA,"Escherichia coli WP2uvrA; S9 Mix -, dose 556 µg/plate",10
same,Number of revertant colonies WP2uvrA,"Escherichia coli WP2uvrA; S9 Mix -, dose 1667 µg/plate",15
same,Number of revertant colonies WP2uvrA,"Escherichia coli WP2uvrA; S9 Mix -, dose 5000 µg/plate",7

# — patent US20230210831A1, “CHRONIC KIDNEY DISEASE TREATMENT OR PREVENTION METHOD” (Japan Tobacco Inc., priority 2019, published 2023)
